How the values were obtained:
Test in all cases: biochemical
Set-up in all cases: in vitro kinase inhibition assay
[1] = target: T1, CDK5/p25 (Homo sapiens, UniProt Q00535); conditions: read-out: NU2058 % inhibition
T1 construct: with p25

[2] = target: CDK9/cyclin T (Homo sapiens, UniProt P50750); conditions: read-out: NU2058 % inhibition
[3] = target: DYRK1a (Homo sapiens, UniProt Q13627)

Sequence of CDK9/cyclin T (P50750 whole entry): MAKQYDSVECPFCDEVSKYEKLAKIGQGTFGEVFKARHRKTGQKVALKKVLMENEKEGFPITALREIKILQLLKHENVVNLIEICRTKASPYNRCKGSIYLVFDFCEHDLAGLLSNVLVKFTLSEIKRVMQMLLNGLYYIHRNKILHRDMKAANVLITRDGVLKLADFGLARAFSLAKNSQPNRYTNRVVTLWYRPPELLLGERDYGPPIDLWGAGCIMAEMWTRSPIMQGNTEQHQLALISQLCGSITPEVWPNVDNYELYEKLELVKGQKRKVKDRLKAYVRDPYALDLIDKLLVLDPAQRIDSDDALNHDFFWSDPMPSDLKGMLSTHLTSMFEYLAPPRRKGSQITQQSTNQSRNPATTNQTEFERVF
Sequence of CDK9/cyclin T (O60563 whole entry partner): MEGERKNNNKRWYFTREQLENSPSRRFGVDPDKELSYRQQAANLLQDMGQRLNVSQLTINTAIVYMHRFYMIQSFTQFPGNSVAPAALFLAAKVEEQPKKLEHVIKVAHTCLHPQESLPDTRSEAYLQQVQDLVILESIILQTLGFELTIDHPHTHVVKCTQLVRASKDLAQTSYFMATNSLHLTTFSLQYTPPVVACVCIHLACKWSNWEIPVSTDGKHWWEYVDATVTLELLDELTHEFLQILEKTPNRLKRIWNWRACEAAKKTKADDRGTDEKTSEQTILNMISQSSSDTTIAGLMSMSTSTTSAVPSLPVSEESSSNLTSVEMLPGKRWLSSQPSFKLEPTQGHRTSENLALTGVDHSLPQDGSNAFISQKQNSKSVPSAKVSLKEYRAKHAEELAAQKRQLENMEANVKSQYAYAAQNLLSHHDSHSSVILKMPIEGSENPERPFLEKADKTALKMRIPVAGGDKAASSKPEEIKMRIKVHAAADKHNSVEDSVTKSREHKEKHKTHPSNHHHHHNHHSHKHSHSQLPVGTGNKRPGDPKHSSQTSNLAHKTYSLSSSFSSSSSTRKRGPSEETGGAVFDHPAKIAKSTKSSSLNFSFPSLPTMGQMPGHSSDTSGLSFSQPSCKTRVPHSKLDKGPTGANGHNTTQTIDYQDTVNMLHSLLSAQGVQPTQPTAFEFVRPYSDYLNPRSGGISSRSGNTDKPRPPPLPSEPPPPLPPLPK
T1 sequence (Q00535 whole entry): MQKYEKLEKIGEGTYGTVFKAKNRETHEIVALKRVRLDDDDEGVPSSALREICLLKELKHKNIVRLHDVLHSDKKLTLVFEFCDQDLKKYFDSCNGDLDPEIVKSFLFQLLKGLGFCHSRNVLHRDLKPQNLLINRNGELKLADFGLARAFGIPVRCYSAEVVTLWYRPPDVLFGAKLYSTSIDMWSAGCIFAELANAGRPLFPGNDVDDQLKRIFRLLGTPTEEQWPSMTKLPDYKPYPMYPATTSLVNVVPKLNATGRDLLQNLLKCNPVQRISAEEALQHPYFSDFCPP
T1 sequence (Q15078 whole entry partner): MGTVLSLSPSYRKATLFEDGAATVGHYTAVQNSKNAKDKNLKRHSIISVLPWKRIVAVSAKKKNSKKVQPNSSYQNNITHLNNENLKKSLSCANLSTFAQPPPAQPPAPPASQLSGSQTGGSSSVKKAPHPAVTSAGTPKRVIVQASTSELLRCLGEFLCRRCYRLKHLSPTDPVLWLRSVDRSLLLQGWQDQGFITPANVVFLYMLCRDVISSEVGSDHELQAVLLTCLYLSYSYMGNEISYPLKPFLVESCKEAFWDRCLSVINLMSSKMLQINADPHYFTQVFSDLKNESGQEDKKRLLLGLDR

## Nc1nc(OCC2CCCCC2)c2nc[nH]c2n1 [NU2058]
[1]
  inhibition at 100 µM: 50%
[2]
  inhibition at 100 µM: 43%

## NS(=O)(=O)c1ccc(Nc2nc(OCC3CCCCC3)c3nc[nH]c3n2)cc1 [NU6102]
[3]
  IC50: 950 nM

— article PMC2816653, “Pre-clinical evaluation of cyclin-dependent kinase 2 and 1 inhibition in anti-estrogen-sensitive and resistant breast cancer cells” (British Journal of Cancer, 2009)
